{
  "source": "patent US12109266B2",
  "about": "“Modulating gabarap to modulate immunogenic cell death” (Dana-Farber Cancer Institute, Inc., priority 2020, dated 2024)",
  "key": {"[1]": {"tested_on": "type-I IFN response in AMO1 and NCI-H929 MM cells", "assay": "Type-I IFN response in MM cells (RNA-seq, qRT-PCR, ELISA)", "type": "cell-based, human", "conditions": "BTZ 5 nM", "description": "Total RNA from multiple myeloma cells was prepared with TRIzol™ (ThermoFisher Scientific) and RNA Clean and Concentrator™-5 kit (Zymo Research) following the product instructions. RNA integrity and quantity was assessed by NanoDrop Spectrophotometer (ThermoFisher Scientific). For analysis of mRNA expression, oligo-dT-primed cDNA was obtained using the High Capacity cDNA Reverse Transcription Kit (ThermoFisher Scientific), and used as template to quantify: human and murine IFNA1 (Hs03044218_g1, Mm03030145_gH), human and murine IFNB1 (Hs01077958_s1, Mm00439552_s1), human and murine CXCL9 (Hs00171065_ml, Mm00434946_ml), and human and murine GAPDH (Hs02786624_g1, Mm99999915_g1). Analysis was determined by RT-PCR using TaqMan®Fast Universal PCR Master Mix on a 7500 Fast Real-Time PCR System (ThermoFisher Scientific). Comparative RT-PCR was performed in triplicate. Relative expression was calculated using the comparative […] (Ct) method.\nAMO1^WT and STING^KO cells were either untreated or treated with BTZ for 24 h. Supernatant was collected, and secretion of CXCL9 chemokines was analyzed by MIG (CXCL9) Human Instant ELISA™ Kit (#BMS285INST, ThermoFisher Scientific).\nAMO1 WT and STING^KO were cultured for 16 h in the presence of absence of BTZ (5 nM). RNA was extracted as previously described and submitted to NovaSeq RNAseq analysis followed by VIPER NGS Analysis pipeline (Cornwell et al. (2018) BMC Bioinformatics; 19(1):135). Lists of DEGs were applied to the GSEA software. RNAseq data have been submitted to Gene Expression Omnibus (accession number: GSE171837)."}, "STC1": {"tested_on": "STC1", "assay": "Western blot of STC1", "type": "cell-based"}, "CALR": {"tested_on": "CALR", "assay": "Mass spectrometry after CALR immunoprecipitation", "type": "cell-based, human", "conditions": "AMO1 WT vs GABARAP^KO, with or without BTZ", "source_text": "To test this hypothesis, the CALR network was explored at the protein level by performing mass spectrometry (MS) after CALR immunoprecipitation (IP) in WT or GABARAP^KO AMO1 cells in the presence or absence of BTZ. […] CALR trap in the mitochondria has been recently reported in tumors with high stanniocalcin 1 (STC1), a newly recognized phagocytosis checkpoint driving tumor immune resistance (Lin et al. (2021) Cancer Cell. April 12; 39(4):480-493.e6. doi: 10.1016/j.ccell.2020.12.023. Epub 2021 Jan. 28. PMID: 33513345; PMCID: PMC8044011). […] A WB analysis of FLAG-immunoprecipitated proteins in […] cells expressing FLAG-tagged GABARAP was performed to analyze GABARAP interacting partners. […] These findings identify a molecular mechanism whereby GABARAP prevents STC1 binding to CALR; conversely, in low-GABARAP cells STC1 binding to CALR induces trapping of CALR in the mitochondria (FIG. 34)."}, "[2]": {"tested_on": "AMO1, H929 and KMS11 MM cells", "assay": "Phagocytosis assay of MM cells by monocyte-derived DCs", "type": "cell-based, human", "description": "Mo-DCs were generated from CD14+ peripheral blood monocytes were positively selected using magnetic beads (Miltenyi Biotec) and cultured for 6 days in mo-DC differentiation medium containing GM-CSF and IL-4 (130-094-812; Miltenyi Biotec) to generate Mo-DCs. AMO1, KMS11 and H929 cells lines, as well as patient MM cells, were stained with CellTrace™ Far Red (ThermoFisher Scientific), cultured with or without BTZ (for 16 h), and then incubated in 48-well plates for 4 h at 1:1 ratio with CellTrace™ CFSE stained Mo-DCs. Cells were then collected, and phagocytosis analysis was performed by flow cytometry and confocal microscopy. Analagous phagocytosis experiments was performed using 5TGM1 murine MM and immature murine DC line JAWSII.\nCollected cells were analyzed using the BD LRSFortessa™ X-20 flow cytometer. Mo-DCs that engulfed MM cells were CFSE and FAR-RED double positive. Fold increase in percentage of double positive DCs after co-culture with BTZ treated vs untreated MM cells was compared.\nMo-DCs were generated from CD14+ peripheral blood monocytes from healthy donors, positively selected using magnetic beads (Miltenyi Biotec), cultured for 6 days in mo-DC differentiation medium containing GM-CSF and IL-4 (130-094-812; Miltenyi Biotec). AMO1 and NCI-H929 cells lines, as well as patient MM cells, were stained with CellTrace™ Far Red (ThermoFisher Scientific), cultured with or without BTZ for 16 h, and then incubated in 48-well plates for 4 h at 1:1 ratio with CellTrace™ CFSE stained Mo-DCs. Cells were then collected, and phagocytosis analysis was performed by flow cytometry and confocal microscopy. Analagous phagocytosis experiments were performed using 5TGM1 murine multiple myeloma and JAWSII cell line that was used as source of immature murine DCs.\nFlow cytometry-based assay: Collected cells were analyzed using the BD LRSFortessa X-20 flow cytometer. Mo-DCs that engulfed MM cells were CFSE and FAR-RED double positive. Fold increase in percentage of double positive DCs after co-culture with BTZ treated vs untreated MM cells was compared."}, "U266 cells": {"tested_on": "U266 cells", "assay": "Cytotoxicity assay (T cell lysis of MM cells)", "type": "cell-based, human", "conditions": "T cells from BTZ co-culture, 24 h", "description": "After coculture of HLA-matched DCs and T cells from healthy donors with either untreated or BTZ-treated U266 cells for 5 days, T cells were negatively selected using the Pan T cell Isolation Kit (Miltenyi Biotec) and plated in round bottom 96-well plates with naïve U266 cells pre-stained with CFSE dye (ThermoFisher Scientific) at different target:effector (T:E) ratios for 24 h in the presence of IL-2 (#130-097-74, Miltenyi Biotec). Then cells were 7AAD-stained, and detection of viable CFSE-gated cells was performed using BD LRSFortessa X-20 cytometer."}},
  "note": "Entries after “also recorded” stand apart in the source; their conditions may differ.",
  "data": [
    {"smiles": "CC(C)C[C@H](NC(=O)[C@H](Cc1ccccc1)NC(=O)c1cnccn1)B(O)O", "note": "[BTZ, bortezomib]", "values": [
      {"measurement": "type-I IFN response gene sets (RNA-seq)", "setting": "[1]; AMO1, 16 h", "result": "positive enrichment of gene sets included in the type-I IFN response hallmark signature; also recorded: MM cells engage in a type I IFN response after treatment with BTZ"},
      {"measurement": "CXCL9 transcript and secreted CXCL9 (ELISA)", "setting": "[1]; AMO1 STING^KO", "result": "neither CXCL9 transcript or its secreted form were detected"},
      {"measurement": "type-I IFN response (RNA-seq; IFNA1, IFNB1 qRT-PCR)", "setting": "[1]; AMO1 STING^KO", "result": "did not activate transcription of genes in the IFNs response or increase the levels of IFNA1 and IFNB1 transcripts; also recorded: STING dependent"},
      {"measurement": "IFNA1, IFNB1 and CXCL9 transcripts (qRT-PCR)", "setting": "[1]; AMO1 and NCI-H929, 16 h", "result": "increased IFNA1, IFNB1 and CXCL9 transcripts"},
      {"measurement": "STC1 protein levels", "setting": "STC1; GABARAP^KO cells after BTZ", "result": "intracellular levels of STC1 are even higher after BTZ treatment"},
      {"measurement": "STC1 protein levels", "setting": "STC1; WT cells (5TGM1, AMO1) after BTZ", "result": "STC1 protein levels decrease in WT cells after BTZ treatment"},
      {"measurement": "binding of CALR to mitochondrial proteins", "setting": "CALR", "result": "increases the binding of CALR to mitochondrial proteins in AMO1 GABARAP^KO cells and not WT cells; also recorded: increase of the binding of CALR to mitochondrial proteins only in AMO1 GABARAP^KO cells; also recorded: CALR localizes to the mitochondria after treatment with BTZ in GABARAP KO cells"},
      {"measurement": "phagocytosis of BTZ-treated MM cells by DCs", "setting": "[2]; AMO1, NCI-H929 WT, BTZ 16 h, then 4 h co-culture", "result": "induces functional maturation of dendritic cells (DCs) in vitro; also recorded: enhanced uptake of BTZ-treated MM cells; also recorded: engulfed by monocyte-derived DCs after 4 h of co-culture"},
      {"measurement": "phagocytosis of BTZ-treated MM cells by DCs", "setting": "[2]; AMO1 GABARAP^KO", "result": "did not stimulate phagocytosis by DCs; also recorded: GABARAP^KO abrogates phagocytosis by DCs"},
      {"measurement": "induction of ICD", "setting": "[2]; GABARAP^KO in 2 ICD-sensitive cell lines (AMO1, H929)", "result": "abrogated the induction of ICD by BTZ"},
      {"measurement": "induction of ICD", "setting": "[2]; KMS11 / GABARAP-null cells", "result": "resistant to induction of ICD by BTZ"},
      {"measurement": "induction of ICD", "setting": "[2]; KMS11 / GABARAP-null cells, listed as Bortezomib", "result": "does not induce ICD in GABARAP-null cells"},
      {"measurement": "functional maturation of co-cultured DCs (phagocytosis assay)", "setting": "[2]; KMS11 cells (monoallelic deletion of GABARAP)", "result": "did not lead to an increase of CRT exposure or functional maturation of co-cultured DCs"},
      {"measurement": "lysis of MM cells by T cells isolated after co-culture", "setting": "U266 cells", "result": "able to efficiently induce lysis of multiple myeloma cells"}
    ]}
  ]
}
